Data reported in ChEMBL document CHEMBL1201862, “PubChem BioAssay data set” (2004).
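Dose response: 5 concentrations. Exposure: 48 h. Format: 96-well plates. Endpoint: linear interpolation; highest concentration if not reached. GI50 marks 50% less growth.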 Calls of active or inactive are those of the source. No stated cut-off is given here; in the data, active = GI50 up to about 1.1 µM and inactive = higher. Residues, ends and D or L forms follow the SMILES beside them. *: point of attachment. Cbz = O=C(OCc1ccccc1)*

Experiments:
Assay in all cases: NCI tumour cell line growth inhibition, 48 h
PC-3 = system: PC-3
MDA-MB-231 = system: MDA-MB-231
BT-549 = system: BT-549
DMS-114 = system: DMS-114
DMS-273 = system: DMS-273
LXFL 529 = system: LXFL 529
HOP-18 = system: HOP-18
DLD-1 = system: DLD-1

SMILES | GI50 (PC-3) | GI50 (MDA-MB-231) | GI50 (BT-549) | GI50 (DMS-114) | GI50 (DMS-273) | GI50 (LXFL 529) | GI50 (HOP-18) | GI50 (DLD-1)
O=C1Nc2ccccc2C1Cc1ccccc1 (stereo not given) | > 100 µM (inactive) |  |  |  |  |  |  | 
CC1C2(C)OC(=N)C(C#N)(C(C)O2)C1(C#N)C#N (stereo not given) | 31.8 µM (inactive) | 19.9 µM (inactive) | 31.6 µM (inactive) |  |  |  |  | 
COC(=O)C(=O)C(C(=O)C(=O)Nc1ccc([N+](=O)[O-])cc1C#N)c1nc2ccc([N+](=O)[O-])cc2nc1O (stereo not given) |  |  |  | > 100 µM (inactive) | > 100 µM (inactive) | > 100 µM (inactive) | 34.8 µM (inactive) | > 100 µM (inactive)
c1cc2nnsc2s1 |  |  |  |  | 70.6 µM (inactive) | 90.8 µM (inactive) | > 100 µM (inactive) | 60.4 µM (inactive)
Nc1nc(-c2ccco2)cc(-c2ccc(CO)o2)n1 |  |  |  | > 100 µM (inactive) | > 100 µM (inactive) | > 100 µM (inactive) |  | 
CCN1CCN=c2c3cc(OC)ccc3n3cnc4ccc1c2c43 | 0.207 µM (active) | 0.275 µM (active) |  |  |  |  |  | 
CN(C)CCCNC(=O)c1cc(NC(=O)CCCn2c3ccccc3c3ccccc32)cn1C | 20.7 µM (inactive) | 21 µM (inactive) | > 100 µM (inactive) |  |  |  |  | 
COC(=O)c1ccc2c(c1)S/C(=C/c1ccc3ccc4cccc5ccc1c3c45)S2 | 48.1 µM (inactive) | > 100 µM (inactive) | 35.8 µM (inactive) |  |  |  |  | 
C1OCN2c3nonc3N3COCN4c5nonc5N1C2C43 (stereo not given) | > 100 µM (inactive) | > 100 µM (inactive) | > 100 µM (inactive) |  |  |  |  | 
COc1ccc2oc(=O)c(-c3csc(C)n3)cc2c1 | > 100 µM (inactive) | 24.7 µM (inactive) | 15.8 µM (inactive) |  |  |  |  | 
CCOC(=O)/C=C/C1=C(Br)[C@@]2(C)CC[C@@H]3c4ccc(O)cc4CC[C@H]3[C@@H]2C1 | 15.2 µM (inactive) |  | 14.3 µM (inactive) |  |  |  |  | 
O=[N+]([O-])c1ccc(N/N=C(\c2ccccc2)c2ccccn2)nc1 | 0.92 µM (active) | 1 µM (active) | 15.5 µM (inactive) |  |  |  |  | 
CC(=O)OC1c2ccccc2CCCCCCC12OCCO2 (stereo not given) |  |  |  | 61.5 µM (inactive) |  |  | > 100 µM (inactive) | > 100 µM (inactive)
COc1ccc(/C=C2/CCS(=O)(=O)c3ccc(C)cc3C2=O)cc1OC | 15.8 µM (inactive) | 12.8 µM (inactive) | 9.27 µM (inactive) |  |  |  |  | 
CCOC(=O)N1CCN(Cc2cc(=O)n3ccc(C)cc3n2)CC1 | > 100 µM (inactive) | > 100 µM (inactive) | > 100 µM (inactive) |  |  |  |  | 
COc1ccc(/C=C/NC=O)cc1 | > 100 µM (inactive) | 89.5 µM (inactive) | > 100 µM (inactive) |  |  |  |  | 
COc1ccc(CC2c3c(cc(OC)c(OC)c3OC)CCN2C)cc1OC (stereo not given) |  |  |  |  |  | > 100 µM (inactive) | 51.2 µM (inactive) | > 100 µM (inactive)
COc1ccc(/N=C(/[N-]n2c(=O)c(C)nn(C)c2=S)N(c2ccc(OC)cc2)c2n[n+]3c(=O)c(C)nn(C)c3s2)cc1 |  |  |  | > 100 µM (inactive) | > 100 µM (inactive) | > 100 µM (inactive) | > 100 µM (inactive) | > 100 µM (inactive)
Oc1c(N2CCCCC2)cc(-c2cc(N3CCCCC3)c(O)c3ccccc23)c2ccccc12 | 31.3 µM (inactive) | 39.8 µM (inactive) |  |  |  |  |  | 
Cc1cn(C2CC(N)C(C(=O)O)O2)c(=O)[nH]c1=O (stereo not given) | > 100 µM (inactive) | > 100 µM (inactive) | > 100 µM (inactive) |  |  |  |  | 

SMILES | GI50 (PC-3) | GI50 (MDA-MB-231) | GI50 (BT-549) | GI50 (DMS-114) | GI50 (DMS-273) | GI50 (LXFL 529) | GI50 (HOP-18) | GI50 (DLD-1)
O=C1C[C@@H]2[C@@H](c3ccccc3)[C@@H]3C(=O)c4ccccc4NC(=O)[C@H]3[C@]2(O)c2ccccc2N1 |  |  |  | > 100 µM (inactive) | > 100 µM (inactive) | > 100 µM (inactive) |  | 
CSc1nc(=O)c(C#N)c(-c2ccccc2)n1C1OC(COC(C)=O)C(OC(C)=O)C(OC(C)=O)C1OC(C)=O (stereo not given) | 52.2 µM (inactive) | > 100 µM (inactive) | > 100 µM (inactive) |  |  |  |  | 
CCN(CC)CCNc1c(OC)cc(C)c2sc3ccccc3c(=O)c12 | 7.71 µM (inactive) | 2.74 µM (inactive) | 11.7 µM (inactive) |  |  |  |  | 
NNC(=O)c1ccccc1NC(=O)/C(=C/c1ccccc1)NC(=O)c1ccccc1 | > 100 µM (inactive) | 47.9 µM (inactive) | 60.4 µM (inactive) |  |  |  |  | 
CC(Cc1ccccc1)N(C)Cc1nc(C2CCC([N+](=O)[O-])O2)no1 (stereo not given) |  | 2.47 µM (inactive) |  |  |  |  |  | 
COc1c(C)c(OC)c2c(c1O)[C@@H]1[C@@H]3Cc4c(OC)c(C)c(OC)c(O)c4[C@H](CNC(=O)c4ccc5ccccc5n4)N3[C@@H](C#N)[C@H](C2)N1C | 0.00234 µM (active) | 0.00159 µM (active) | 0.000377 µM (active) |  |  |  |  | 
CNC(=S)Nc1ccc(OC)c2ccccc12 | > 10 µM (inactive) | > 10 µM (inactive) | > 10 µM (inactive) |  |  |  |  | 
CCOC(=O)CNc1nc(=O)c2c(=O)oc(Cl)cc2o1 | 13.2 µM (inactive) | 21.6 µM (inactive) |  |  |  |  |  | 
O=C1CCCC/C1=C\c1ccc(Br)cc1 | 97.7 µM (inactive) | 16.8 µM (inactive) | 14.5 µM (inactive) |  |  |  |  | 
Cc1ccc(/C=C2\CCCC(CN3CCCCC3)C2=O)cc1 (stereo not given) | 2.79 µM (inactive) | 1.85 µM (inactive) | 2.29 µM (inactive) |  |  |  |  | 
CCOC(=O)CSc1nc(N)c2c(-c3ccccc3)c3c(nc2n1)CCCC3 | > 100 µM (inactive) | > 100 µM (inactive) | > 100 µM (inactive) |  |  |  |  | 
O=C1N[C@@H]([C@H]2CC[C@H](Cl)CN2)C(=O)N[C@H]1[C@H]1CC[C@H](Cl)CN1 | 0.804 µM (active) | 0.925 µM (active) | 1.63 µM (inactive) | 0.269 µM (active) | 0.205 µM (active) |  | 5.86 µM (inactive) | 4.92 µM (inactive)
Cc1cccc(-n2c(C)nc3ccc(NC4OC(CO)C(O)C(O)C4O)cc3c2=O)c1 (stereo not given) | > 100 µM (inactive) | > 100 µM (inactive) | > 100 µM (inactive) |  |  |  |  | 
CCCn1c(SCCSc2c3ccccc3c(-c3nc(F)nc(F)n3)n2CCC)c2ccccc2c1-c1nc(F)nc(F)n1 |  |  |  |  | > 100 µM (inactive) | 88.9 µM (inactive) | > 100 µM (inactive) | 20.5 µM (inactive)
CCOc1ccc2ccccc2c1NC1=NCCO1 |  | > 100 µM (inactive) |  |  |  |  |  | 
NCCN1C(=O)C2C3c4ccccc4C(c4ccccc43)C2C1=O (stereo not given) |  |  |  | > 100 µM (inactive) | > 100 µM (inactive) | > 100 µM (inactive) | > 100 µM (inactive) | > 100 µM (inactive)
O=C1C=C(OCCCCl)C(=O)c2c(O)ccc(O)c21 | 1.93 µM (inactive) | 1.74 µM (inactive) | 1.09 µM (active) |  |  |  |  | 
Cc1cc(-c2ccccc2)nc(Nc2nc3ccccc3o2)n1 |  |  |  | > 100 µM (inactive) |  | > 100 µM (inactive) |  | > 100 µM (inactive)
O=[N+]([O-])C1=Cc2c(O)ccc(O)c2C2c3ccccc3NC12 (stereo not given) | 6.3 µM (inactive) | 13.6 µM (inactive) | 12.3 µM (inactive) |  |  |  |  | 
CCOC(=O)C(C(N)=O)C1=Nc2cc([N+](=O)[O-])ccc2N/C1=C\C(=O)c1ccccc1 (stereo not given) | 15.5 µM (inactive) | 13.3 µM (inactive) | 21.7 µM (inactive) |  |  |  |  | 

SMILES | GI50 (PC-3) | GI50 (MDA-MB-231) | GI50 (BT-549) | GI50 (DMS-114) | GI50 (DMS-273) | GI50 (LXFL 529) | GI50 (HOP-18) | GI50 (DLD-1)
CO[C@]12C[C@@H](CNC(=O)c3cc(Br)c[nH]3)O[C@H]1NC(=O)N2 | > 100 µM (inactive) | > 100 µM (inactive) | > 100 µM (inactive) |  |  |  |  | 
CCN(CC)c1c(C(C)(C)C)c(=O)n2ccsc2c1OC(C)=O | 11.2 µM (inactive) | 17.8 µM (inactive) | 15.5 µM (inactive) |  |  |  |  | 
CC(=O)CC(=O)Nc1ccccc1[N+](=O)[O-] |  |  |  | > 100 µM (inactive) | > 100 µM (inactive) | > 100 µM (inactive) | > 100 µM (inactive) | > 100 µM (inactive)
Cc1ccc(Nc2nc(N)nc3c2ncn3C2OC(CO)C(O)C2O)cc1 (stereo not given) | > 100 µM (inactive) | 98.9 µM (inactive) |  |  |  |  |  | 
CO[C@]12CCC(=O)N1C=Cc1c2[nH]c2ccccc12 |  |  |  | > 100 µM (inactive) |  | > 100 µM (inactive) | > 100 µM (inactive) | > 100 µM (inactive)
O=c1c2ccc(Cl)cc2oc2c(CNc3ccc(S(=O)(=O)Nc4nccs4)cc3)cccc12 | > 100 µM (inactive) | 98.6 µM (inactive) | > 100 µM (inactive) |  |  |  |  | 
COC(=O)[C@H](Cc1c[nH]c2ccccc12)NC(=O)OCC1OC(n2cc(C)c(=O)[nH]c2=O)CC1N=[N+]=[N-] (stereo not given in full) | > 100 µM (inactive) | > 100 µM (inactive) | > 100 µM (inactive) |  |  |  |  | 
C1=C2C3=[N+](CCCC3)CC2Cc2sccc21 (stereo not given) | 45.6 µM (inactive) | > 100 µM (inactive) | 82.6 µM (inactive) |  |  |  |  | 
Cc1nn(C(=O)c2ccc(Cl)cc2)c2c1C(c1cccc([N+](=O)[O-])c1)SC(=N)N2 (stereo not given) | > 10 µM (inactive) | > 10 µM (inactive) | > 10 µM (inactive) |  |  |  |  | 
Cc1nc2c(o1)/C(=N\c1ccccc1)c1nc(C)oc1/C2=N/c1ccccc1 |  |  |  | 25.5 µM (inactive) | 20 µM (inactive) | 20.8 µM (inactive) | 17.3 µM (inactive) | 25.5 µM (inactive)
COc1nc(N)nc2c1ncn2C1CC(O)C(CO)O1 (stereo not given) | > 100 µM (inactive) | > 100 µM (inactive) | > 100 µM (inactive) |  |  |  |  | 
N=C(N)c1ccc(/N=N/c2c(O)ccc3cc(O)ccc23)cc1 | > 100 µM (inactive) | > 100 µM (inactive) | > 100 µM (inactive) |  |  |  |  | 
COc1cccc(-c2ccc3c4c2O[C@H]2c5[nH]c6ccccc6c5C[C@@]5(O)[C@@H](C3)N(CC3CC3)CC[C@]425)c1 |  | 0.14 µM (active) | 4.83 µM (inactive) |  |  |  |  | 
C[C@H](CCC(=O)NCCS(=O)(=O)O)[C@H]1CC[C@H]2[C@@H]3[C@H](O)C[C@@H]4C[C@H](O)CC[C@]4(C)[C@H]3CC[C@]12C | > 100 µM (inactive) | > 100 µM (inactive) | > 100 µM (inactive) |  |  |  |  | 
O=S(=O)(O)c1cccc2c(/N=N/c3c(O)ccc4ccccc34)cccc12 | > 100 µM (inactive) | > 100 µM (inactive) | > 100 µM (inactive) |  |  |  |  | 
COc1cc(C2c3cc4c(cc3[C@@H](NCCN3CCCCC3)C3COC(=O)[C@H]23)OCO4)cc(OC)c1O (stereo not given in full) |  |  |  |  | 0.123 µM (active) | 2 µM (inactive) | 0.509 µM (active) | 1.6 µM (inactive)
c1ccc(-c2nc(-c3ccccc3)c(-c3ccccc3)[nH]2)cc1 | > 100 µM (inactive) | > 72.6 µM (inactive) | > 100 µM (inactive) |  |  |  |  | 
CC(NC(=O)C(NC(=O)OCc1ccccc1)C(C)C)C(=O)NCC(=O)O (stereo not drawn) (Cbz-Val-Ala-Gly-OH; configuration not given here) | > 100 µM (inactive) | > 100 µM (inactive) | > 100 µM (inactive) |  |  |  |  | 
